According to US8937167B2 (Washington University, priority 2009, dated 2015):
pIC50: −log10 of the molar value. Entries after “also recorded” stand apart in the source; their conditions may differ. Read-outs that look alike come from different tables or passages of the source.

Experiments:
[1] = tested on: UTI89 biofilm; test: UTI89 type 1 dependent biofilm formation (inhibition/prevention) assay on PVC, crystal violet; type: cell-based, uropathogenic E. coli UTI89; conditions: for pIC50: Escherichia coli, read-out: Biofilm Prevention IC50
Method in brief: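 Prevention: UTI89 grown in LB in PVC wells at 23° C with mannoside at varying concentrations for 48 h, then crystal violet stained and quantified. Disruption: 24 h UTI89 biofilm, mannoside added, grown 16 h more, then crystal violet.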

[2] = molecular target: T1, FimH lectin domain (residues 1-158 of UPEC J96 FimH) (Escherichia coli, UniProt P08191); type: binding; conditions: Table 21
T1 construct: made in house
Description: DSF measures the melting temperature change of protein when binding to small molecules. Melting temperature shifts are proportional to the free energy of binding, and melting temperatures increase even as ligand concentration exceeds the Kd.
FimH lectin domain (residues 1-158 of UPEC J96 FimH, without an affinity tag) was purified as described previously. Five micrograms FimH in 5 μl HBS were mixed with HBS to yield a final volume of 50 μl containing compound at a final concentration of 100 μM and a “5×” final concentration of SYPRO Orange (sold as a “5000×” stock in DMSO and mixed with HBS to a working stock of 50× immediately before use: Life Technologies Inc.; Grand Island, N.Y.). Compounds were diluted to 100 μM from stocks in DMSO and compared to matched control wells with FimH alone plus 0.2% DMSO. 50 μl reactions were placed in 96-well clear-bottom PCR plates and subjected to a melt curve from 20-90° C. in 0.5° C. increments of 15 seconds each followed by a fluorescence read of the “HEX” channel in a Bio-Rad CFX96 thermocycler (Bio-Rad, Hercules, Calif.). Melt curves were fitted to the Boltzmann equation to determine the melting temperature (Tm) (y=A2+(A1−A2)/(1+exp((x−x0)/dx)) where x0 is the Tm) using OriginPro 8 (OriginLab, Northampton Mass.).

[3] = type: in vitro ADME; conditions: for PAMPA (LogPe): pH 7.4
Description: Materials. The assay was carried out using Multiscreen PVDF 96-well plates (Millipore, Billerica, Mass.) using the company's Transporter Receiver Plate. The lipid (dioleyoylphosphotidylcholine (DOPC):Stearic Acid (80:20, wt %) in dodecane was obtained from Avanti Polar lipids (Alabaster, Ala.). Hank's Buffered Salt Solution (HBSS), pH 7.4 was obtained from MediaTech (Manassas, Va.).
Methods. Each of the test compounds was diluted to 2.5 mM in DMSO (Sigma, St Louis, Mo.) and further diluted prior to testing to 2.5 μM in HBSS, pH 7.4. The assay was performed using a Millipore 96-well Multiscreen-IP PAMPA plate, 5 μl of the lipid suspension was directly added to the PVDF membrane of the filter plate. Immediately following the addition of the lipid to the membrane, 200 μl of HBSS solution containing the test compound was added to the donor (upper) chamber. HBSS (300 μl) is also added to the receiver plate and the filter and receiver plates assembled and incubated overnight at room temperature in a moistened sealed bag to prevent evaporation. The concentration in the receiver plate as well as an equilibrium plate, that represents a theoretical, partition-free sample, was determined by HPLC-tandem mass spectrometry. Analysis of each compound was performed in triplicate.
Analysis. Analysis of both the acceptor and equilibrium samples were performed using an AB 3200 triple quadripole mass spectrometer linked to a Shimadzu DGU-20A HPLC with a Prevail C18 column (3 μm, 2.1×10 mm) with a flow rate of 0.35 ml/min. The mobile phase used was A: 0.1% Formic Acid in water, B: 0.1% Formic Acid in methanol. The elation gradient method is described in the table. Data acquisition and peak height determination was performed using Analyst v.1.4.2.
Calculations. The login of the effective permeability (LogPe) was calculated using the following equation
[formula] [formula] Where the drug concentration is the peak areas for the analyte and VD and VA is the volume of the donor and acceptor compartment respectively. The area is the surface area of the PVDF membrane (0.11 cm^2) and time is the incubation in seconds (64,800 sec). Each value is the mean of triplicates performed on the same day.

[4] = molecular target: T2, FimH (Escherichia coli, UniProt Q1R2J4); conditions: for HAI Titer EC>50: Table 21;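 on all read-outs here: hemagglutination inhibition of guinea pig erythrocytes agglutinated by type 1 piliated uropathogenic E. coli via FimH mannose binding, quantified through serial dilutions of compound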
Description: (§1) In some embodiments, activity of the compound is measured using hemmagglutination titer of guinea pig red blood cells. Hemagglutination of guinea pig red blood cells by type1 piliated UPEC is dependent upon FimH mannose binding ability and serial dilutions allow a quantitative analysis.
(§2) Biological activity against FimH was evaluated using a guinea pig red blood cell-based hemagglutination (HA) assay (ref) in which the concentration of the mannoside on reducing agglutination by 50% was used as the primary endpoint (50% HA titer).
(§3) Hemagglutination of guinea pig red blood cells by type1 piliated UPEC is dependent upon FimH mannose binding ability. Serial dilutions allow a quantitative analysis using this assay.
(§4) Hemagglutination assays for mannose-sensitive agglutination of guinea pig red blood cells were performed as previously described.

[5] = molecular target: T2, FimH; test: cell-based; conditions: read-out: HAI Titer EC90
Description: as §1, §2, §3, §4

[6] = tested on: UTI89; test: Mouse UTI model, bladder bacterial titers (CFU); type: in vivo, E. coli (UPEC); host C3H/HeN mouse; conditions: UTI89 incubated with 5 mM compound before inoculation; 6 hours post-infection
Description: For mannoside treatment, bacteria were incubated with 1 mM ZFH56 prior to inoculation. Every 24 h for 3 days, mice were transurethrally inoculated with 1 mM ZFH56. For antibiotic treatment, mice were inoculated with UTI89 and immediately given antibiotics in the drinking water for 3 days. Antibiotics used were trimethoprim-sulfamethoxazole (SXT) at […], respectively. For dual treatment, bacteria were incubated with 1 mM ZFH56 prior to inoculation. Every 24 h for 3 days, mice were transurethrally inoculated with 1 mM ZFH56. Additionally, mice were immediately given antibiotics in the drinking water for 3 days as in the antibiotic only treatment. Urine was collected every day for 13 days. At 2 weeks, mice were sacrificed and bladders were titered.
UTI89 biofilm was grown in LB+/− mannoside for 24 h at 22° C. in PVC plates and quantitated using crystal violet. UTI89 biofilm for confocal microscopy was grown in LB for 24 h at 22° C. on PVC coverslips. Mannoside was then added and biofilm was grown for an additional 16 h. Coverslips were then washed in PBS, fixed in 2% paraformaldehyde and stained with SYTO9 prior to confocal microscopy. For all animal experiments UTI89 or PBC-1 was grown 2×24 h statically in LB at 37° C. and inoculated at a dose of 1×10^7 bacteria in 50 μl. All mice used were female C3H/HeN (Jackson). For the pretreatment studies, bacteria were incubated with mannoside for 20 min prior to inoculation into the mouse. […] For CFU counts, bladders were harvested at 6 hpi and placed in 1 mL PBS. Bladders were then homogenized, diluted and plated on LB. After growth at 37° C. overnight, bacterial counts were determined. LacZ staining and gentamicin protection assays were performed at 6 hpi. […] Water was changed daily with fresh antibiotics. Standard growth curve assays and hemagglutination assays were performed with TMP-SMZ. All statistical analysis performed was a two-tailed Mann-Whitney U test.
Animal infections. Bacteria were grown under type 1 pili-inducing conditions (2×24 h at 37° C. statically in LB). The bacteria were harvested and resuspended to an OD600 of 0.5 in PBS. Eight-week-old C3H/HeN (Harlan) female mice were anesthetized by inhalation of isoflurane and infected via transurethral catheterization with 50 μl of the bacterial suspension, resulting in 1-2×10^7 inoculum. At 6 hpi, mice were sacrificed by cervical dislocation under anesthesia and the bladders were immediately harvested and processed as described below. All animal studies using mice were approved by the Animal Studies Committee of Washington University (Animal Protocol Number 20100002).
Bladder tissue bacterial titer determination. Mannoside ZFH-2056 was administered either IP (5 mg/kg) or orally (100 mg/kg) 30 min prior to inoculation with UTI89. […]

[7] = Table 17, Examples 30-36 numbering

| SMILES | pIC50 [1] | PAMPA (LogPe) ([3]; 64800 sec, […]) | HAI Titer EC>90 [4] [µM] | HAI Titer EC>50 ([4]; ZFH/JWJ codes) [µM] | HAI Titer EC>90 ([4]; Table 22, ZFH/JWJ codes) [µM] | also measured |
| --- | --- | --- | --- | --- | --- | --- |
| CNC(=O)c1cc(C(=O)NC)cc(-c2ccc(OC3O[C@@H](CO)[C@@H](O)[C@H](O)[C@H]3O)c(C(F)(F)F)c2)c1 (stereo partly drawn) [Compound 1JWJ149, N1,N3-dimethyl-5-[3-(trifluoromethyl)-4-[(3R,4S,5S,6S)-3,4,5-trihydroxy-6-(hydroxymethyl)tetrahydropyran-2-yl]oxy-phenyl]benzene-1,3-dicarboxamide] | 7.37 | −6.27 | 0.008 | 0.008 | 0.008 | DSF Melting Temp. [2]: 76.15 C. |
| COC(=O)c1cccc(-c2ccc(OC3OC(CO)C(O)C(O)C3O)cc2)c1 (stereo not shown) [Compound 2ZFH236] | – | −4.250 | – | – | – | HAI Titer EC>50 [4]: >2500 µM |
| OCC1OC(Oc2ccc(-c3ccc(O)cc3)cc2)C(O)C(O)C1O (stereo not shown) [Compound 3ZFH26, 2-(hydroxymethyl)-6-[4-(4-hydroxyphenyl)phenoxy]tetrahydropyran-3,4,5-triol] | – | −8.890 | – | – | – | – |
| NC(=O)Nc1ccc(-c2ccc(OC3O[C@@H](CO)[C@@H](O)[C@H](O)[C@H]3O)cc2)cc1 (stereo partly drawn) [Compound 4ZFH218, [4-[4-[(3R,4S,5S,6S)-3,4,5-trihydroxy-6-(hydroxymethyl)tetrahydropyran-2-yl]oxyphenyl]phenyl]urea] | – | −4.35 | 3.000 | 3.000 | 3.000 | – |
| COC(=O)c1cccc(-c2ccc(OC3O[C@@H](CO)[C@@H](O)[C@H](O)[C@H]3O)c(C(F)(F)F)c2)c1 (stereo partly drawn) [Compound 4ZFH222, methyl 3-[3-(trifluoromethyl)-4-[(3R,4S,5S,6S)-3,4,5-trihydroxy-6-(hydroxymethyl)tetrahydropyran-2-yl]oxy-phenyl]benzoate] | 5.09 | −3.91 | 0.032 | 0.032 | 0.032 | – |
| CNC(=O)c1cccc(-c2ccc(OC3O[C@@H](CO)[C@@H](O)[C@H](O)[C@H]3O)c(C)c2)c1 (stereo partly drawn) [Compound 4ZFH269, N-methyl-3-[3-methyl-4-[(3R,4S,5S,6S)-3,4,5-trihydroxy-6-(hydroxymethyl)tetrahydropyran-2-yl]oxy-phenyl]benzamide] | 6.80 | −3.89 | 0.062 | 0.06 | 0.062 | DSF Melting Temp. [2]: 74.46 C. |
| COC(=O)c1cccc(-c2ccc(O[C@H]3O[C@H](CO)[C@@H](O)[C@H](O)[C@@H]3O)c(Cl)c2)c1 [Compound 4b, Methyl 3-[3-chloro-4-[(2R,3S,4S,5S,6R)-3,4,5-trihydroxy-6-(hydroxymethyl)tetrahydropyran-2-yl]oxy-phenyl]benzoate] | 6.59 | −4.29 | – | – | – | HAI Titer EC>90 [4, 7]: 0.03 µM; fold better HAI activity ([4]; relative to matched pair 1, Examples 30-36 numbering): more than 30 fold; EC90 [5]: 30 nM |
| COC(=O)c1cccc(-c2ccc(O[C@H]3O[C@H](CO)[C@@H](O)[C@H](O)[C@@H]3O)c(C(F)(F)F)c2)c1 [Compound 4d, Methyl 3-[3-(trifluoromethyl)-4-[(2R,3S,4S,5S,6R)-3,4,5-trihydroxy-6-(hydroxymethyl)tetrahydropyran-2-yl]oxy-phenyl]benzoate] | 6.77 | −3.91 | – | – | – | HAI Titer EC>90 [4, 7]: 0.03 µM; EC90 [5]: 30 nM |
| O=[N+]([O-])c1ccc(COC2OC(CO)C(O)C(O)C2O)cc1 (stereo not shown) [Compound 5b] | – | – | – | – | – | LogPe ([3]; PAMPA): −3.89; PAMPA (LogPe) [3]: −3.89 |
| CCCCCCCO[C@H]1O[C@H](CO)[C@@H](O)[C@H](O)[C@@H]1O [heptyl mannose] | – | – | – | – | – | virulence / bladder bacterial load [6]: significant attenuation of virulence; also recorded: reduction of bacterial load in the bladder; inhibition of UPEC biofilm formation in vitro ([1]; 1 mM): inhibited UPEC biofilm formation |
